Reference: ChEMBL document CHEMBL4118204, “Antidiabetic potential of phytochemicals isolated from the stem bark of Myristica fatua Houtt. var. magnifica (Bedd.) Sinclair” (Bioorg Med Chem, 2018)

Columns and labels:
Albumin = Albumin (Bos taurus, UniProt P02769); assay: Antiglycation activity in bovine serum albumin assessed as inhibition of advanced glycated end product formation after 24 hrs in presence of alpha-D-glucose by fluorescence assay
L6 [1] = assay: Cytotoxicity against rat L6 cells up to 50 uM after 24 hrs by MTT assay; assay type: cell-based; details: l6, 24 h
Pancreatic alpha-amylase = molecular target: T1, Pancreatic alpha-amylase (Sus scrofa, UniProt P00690); assay: Inhibition of porcine pancreatic alpha-amylase using starch as substrate after 30 mins by iodine reagent based assay
T1 sequence (P00690 whole entry): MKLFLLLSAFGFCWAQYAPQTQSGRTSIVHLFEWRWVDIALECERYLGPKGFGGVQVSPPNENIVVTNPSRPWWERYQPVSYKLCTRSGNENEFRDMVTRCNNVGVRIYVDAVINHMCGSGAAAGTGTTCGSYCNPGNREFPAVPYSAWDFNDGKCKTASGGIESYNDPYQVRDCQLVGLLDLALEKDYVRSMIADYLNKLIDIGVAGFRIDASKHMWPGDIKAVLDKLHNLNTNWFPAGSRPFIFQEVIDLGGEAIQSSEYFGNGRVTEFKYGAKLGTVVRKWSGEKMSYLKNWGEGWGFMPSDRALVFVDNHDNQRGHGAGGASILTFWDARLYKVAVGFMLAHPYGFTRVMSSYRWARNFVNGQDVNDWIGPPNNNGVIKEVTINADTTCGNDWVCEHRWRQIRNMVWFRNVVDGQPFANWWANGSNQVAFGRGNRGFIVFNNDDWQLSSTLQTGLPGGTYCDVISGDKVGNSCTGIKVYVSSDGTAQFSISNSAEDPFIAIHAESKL

L6 [2] = assay: Antidiabetic activity in rat L6 cells assessed as effect on 2-NBDG uptake at 10 uM pretreated for 24 hrs followed by 2-NBDG addition after 30 mins by FACS (reference value: 20%); assay type: functional
[3] = Inhibition of rat intestinal alpha-glucosidase using p-nitrophenyl alpha-D-glucopyranoside as substrate pretreated for 10 mins followed by substrate addition measured after 5 mins
L6 [4] = assay: Antidiabetic activity in rat L6 cells assessed as increase in 2-NBDG uptake pretreated for 24 hrs followed by 2-NBDG addition after 30 mins by FACS; assay type: functional, cell-based
L6 [5] = assay: Antidiabetic activity in rat L6 cells assessed as effect on 2-NBDG uptake at 25 uM pretreated for 24 hrs followed by 2-NBDG addition after 30 mins by FACS (reference value: 20%); assay type: functional
L6 [6] = assay: Antidiabetic activity in rat L6 cells assessed as effect on 2-NBDG uptake at 50 uM pretreated for 24 hrs followed by 2-NBDG addition after 30 mins by FACS (reference value: 20%); assay type: functional
L6 [7] = assay: Antidiabetic activity in rat L6 cells assessed as effect on 2-NBDG uptake at 100 uM pretreated for 24 hrs followed by 2-NBDG addition after 30 mins by FACS (reference value: 20%); assay type: functional

Albumin, sequence (P02769 whole entry): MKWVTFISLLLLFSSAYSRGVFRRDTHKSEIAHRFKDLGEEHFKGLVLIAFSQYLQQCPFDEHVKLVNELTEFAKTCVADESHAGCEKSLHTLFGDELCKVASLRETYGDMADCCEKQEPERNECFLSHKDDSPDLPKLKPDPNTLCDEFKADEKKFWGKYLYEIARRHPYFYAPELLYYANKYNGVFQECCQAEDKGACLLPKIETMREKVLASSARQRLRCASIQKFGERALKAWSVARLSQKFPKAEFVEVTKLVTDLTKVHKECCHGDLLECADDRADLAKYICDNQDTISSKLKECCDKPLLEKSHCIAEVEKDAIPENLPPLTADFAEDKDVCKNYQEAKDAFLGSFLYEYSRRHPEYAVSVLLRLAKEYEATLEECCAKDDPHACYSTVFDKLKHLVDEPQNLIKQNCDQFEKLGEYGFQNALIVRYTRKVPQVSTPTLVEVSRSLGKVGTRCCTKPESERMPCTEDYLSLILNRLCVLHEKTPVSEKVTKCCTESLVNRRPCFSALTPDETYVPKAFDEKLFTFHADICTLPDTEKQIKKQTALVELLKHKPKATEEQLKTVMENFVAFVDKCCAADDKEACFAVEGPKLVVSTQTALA

In the case of `CCCCCCCCCCCCCC(=O)c1c(O)cccc1OC`, the IC50 (Albumin) is reported as 192 µM, the Activity (L6 [1]) is reported as “Non-Toxic” and the IC50 (Pancreatic alpha-amylase) is reported as 39 µM. The Activity (L6 [2]) was 21.2%, the IC50 [3] was 257 µM and the Activity (L6 [4]) was “Dose-dependent effect”. The Activity (L6 [5]) was 28% and the Activity (L6 [6]) was 34.7%.
For `O=C(CCCCCCCCc1ccc(O)cc1)c1c(O)cccc1O` [MALABARICONE B], the IC50 (Albumin) was 40.3 µM, the IC50 (Pancreatic alpha-amylase) was 12.9 µM and the Activity (L6 [2]) was 37.5%. For the same compound, the IC50 [3] was 63.7 µM, the Activity (L6 [4]) was “Dose-dependent effect” and the Activity (L6 [5]) was 45.8%. The Activity (L6 [6]) was 52.7%.
With `CCCCCCCCCCCCC(=O)c1cccc(C(=O)O)c1` the IC50 (Albumin) was 411 µM, the Activity (L6 [1]) was “Non-Toxic” and the IC50 (Pancreatic alpha-amylase) was 36.6 µM. For the same compound, the Activity (L6 [2]) was 17%, the IC50 [3] was 372 µM and the Activity (L6 [4]) was “Dose-dependent effect”. It also gave an Activity (L6 [5]) of 22.5% and an Activity (L6 [6]) of 31.5%.
In the case of `O=C(CCCCCCCCc1ccccc1)c1c(O)cccc1O` [MALABARICONE A], the IC50 (Albumin) is reported as 19.3 µM, the Activity (L6 [1]) is reported as “Non-Toxic” and the IC50 (Pancreatic alpha-amylase) is reported as 19.1 µM. The Activity (L6 [2]) was 32.9%, the IC50 [3] was 91.4 µM and the Activity (L6 [4]) was “Dose-dependent effect”. The Activity (L6 [5]) was 33.4% and the Activity (L6 [6]) was 36.7%.
Work on `C[C@H]1O[C@H](O[C@H]2[C@H](O)[C@@H](O)[C@@H](O[C@H]3[C@H](O)[C@@H](O)C(O)O[C@@H]3CO)O[C@@H]2CO)[C@H](O)[C@@H](O)[C@@H]1N[C@H]1C=C(CO)[C@@H](O)[C@H](O)[C@H]1O` (some centres not stated) [ACARBOSE] yielded an IC50 [3] of 66.6 µM.
With `CCCCCCCCCCCCCC(=O)c1c(O)cccc1O` the IC50 (Albumin) was 121 µM, the Activity (L6 [1]) was “Non-Toxic” and the IC50 (Pancreatic alpha-amylase) was 74.1 µM. For the same compound, the Activity (L6 [2]) was 32.9%, the IC50 [3] was 172 µM and the Activity (L6 [4]) was “Dose-dependent effect”. The Activity (L6 [5]) was 34.1% and the Activity (L6 [6]) was 36.3%.
With `O=C(CCCCCCCCc1ccc(O)c(O)c1)c1c(O)cccc1O` [MALABARICONE C] the IC50 (Albumin) was 15 µM, the Activity (L6 [1]) was “Non-Toxic” and the IC50 (Pancreatic alpha-amylase) was 10.6 µM. For the same compound, the Activity (L6 [2]) was 17%, the IC50 [3] was 43.6 µM and the Activity (L6 [4]) was “Dose-dependent effect”. The Activity (L6 [5]) was 18.3% and the Activity (L6 [6]) was 23.9%.
In the case of `COc1cccc(O)c1C(=O)CCCCCCCCc1ccc(O)cc1`, the IC50 (Albumin) is reported as 104 µM, the Activity (L6 [1]) is reported as “Non-Toxic” and the IC50 (Pancreatic alpha-amylase) is reported as 32.3 µM. For the same compound, the Activity (L6 [2]) was 18.3%, the IC50 [3] was 94.5 µM and the Activity (L6 [4]) was “Dose-dependent effect”. For the same compound, the Activity (L6 [5]) was 34.1% and the Activity (L6 [6]) was 34.6%.
Compound `CN(C)C(=N)NC(=N)N` [METFORMIN] has an Activity (L6 [7]) of 36.6%.
